In ChEMBL document CHEMBL1155519, “Discovery of N-phenyl-4-(thiazol-5-yl)pyrimidin-2-amine aurora kinase inhibitors” (J Med Chem, 2010):
Converted amounts (≈) assume the structure as drawn. The source made the active and inactive calls. The calls are words filed in the database; no cut-off is given here.

Experiments:
[1] = Cmax in Wistar rat at 10 mg/kg, po after 24 hrs by LC/MS/MS analysis; type: ADME, organism-based; set-up: dose 10 mg/kg, route oral; settings: in vivo
[2] = test system: HeLa; assay: Inhibition of Aurora kinase in human HeLa cells assessed as reduction of histone H3 serine-10 phosphorylation at 1 uM after 7 hrs immunofluorescence microscopy; type: cell-based
[3] = target: Cytochrome P450 1A (Homo sapiens, UniProt P04798+P05177); assay: Inhibition of human recombinant CYP1A at 5 uM; type: ADME; settings: recombinant enzyme
[4] = test system: SW-620; assay: Induction of apoptosis in human SW620 cells assessed as late apoptotic cells at 1 uM after 24 hrs by TUNEL assay; type: functional
[5] = test system: Liver microsomes; assay: Intrinsic clearance in rat liver microsomes by LC/MS/MS analysis; type: ADME, Microsome
[6] = target: Cyclin-dependent kinase 7/ cyclin H (Homo sapiens, UniProt P50613); assay: Inhibition of CDK7/Cyclin H; type: protein-complex assay
[7] = Inhibition of CAMK2
[8] = test system: A2780; assay: Cytotoxicity against human A2780 cells after 96 hrs by MTT assay; type: functional, cell-based; settings: A2780, 96 h
[9] = Apparent volume of distribution with respect to the bioavailability in Wistar rat at 10 mg/kg, po after 24 hrs by LC/MS/MS analysis; type: ADME, organism-based; settings: in vivo, read-out: Vc/F
[10] = target: Cytochrome P450 3A4 (Homo sapiens, UniProt P08684); assay: Inhibition of human recombinant CYP3A4 at 5 uM; type: ADME; settings: recombinant enzyme
[11] = test system: NCI-H460; assay: Antitumor activity against human NCI-H460 cells xenografted in athymic mouse assessed as delay in tumor growth at 75 mg/kg, po administered QD on day 1 after implantation for 5 days; type: functional
[12] = test system: Mus musculus; assay: Toxicity in athymic mouse xenografted with human NCI-H460 cells assessed as body weight loss at 100 mg/kg, po administered QD on day 1 after implantation for 5 days measured on day 8; type: organism-based; set-up: dose 100 mg/kg, route oral; settings: in vivo, 120 h
[13] = test system: HeLa; assay: Cytotoxicity against human HeLa cells after 96 hrs by MTT assay; type: functional, cell-based
[14] = test system: SW-620; assay: Effect on mitotic index in human SW620 cells assessed as appearance of polyploid cells at 1 uM after 48 hrs by propidium iodide staining-based FACS analysis; type: functional, cell-based
[15] = test system: NCI-H460; assay: Cytotoxicity against human NCI-H460 cells after 96 hrs by MTT assay; type: functional, cell-based; settings: NCI-H460, 96 h
[16] = target: Aurora kinase B (Homo sapiens, UniProt Q96GD4); settings: A549, 0.15 to 5 uM
Description: Inhibition of Aurora B phosphorylation in human A549 cells at 0.15 to 5 uM after 1 hr by Western blot analysis in presence of nocodazole and proteasome inhibitor MG132

[17] = test system: K562; assay: Cytotoxicity against human K562 cells after 96 hrs by MTT assay; type: functional, cell-based; settings: K562, 96 h
[18] = Aqueous solubility by turbidimetric analysis; type: physicochemical
[19] = test system: NCI-H460; assay: Antitumor activity against human NCI-H460 cells xenografted in athymic mouse assessed as reduction in mean tumor volume at 100 mg/kg, po administered QD on day 1 after implantation for 5 days measured on day 9 relative to control; type: functional; set-up: scale not given: the % may be the effect or the level left
[20] = target: Voltage-gated inwardly rectifying potassium channel KCNH2 (Homo sapiens, UniProt Q12809); assay: Inhibition of human ERG expressed in CHO cells up to 50 uM by patch-clamp electrophysiology; type: cell-based
[21] = test system: U2OS; assay: Inhibition of Aurora kinase in nocodazole-synchronized human U2OS cells assessed as reduction of histone H3 serine-10 phosphorylation at 0.07 to 10 uM after 2 hrs immunofluorescence microscopy; type: cell-based
[22] = test system: HuP-T4; assay: Cytotoxicity against human HUPT4 cells after 96 hrs by MTT assay; type: functional, cell-based; settings: HuP-T4, 96 h
[23] = test system: SAOS-2; assay: Cytotoxicity against human Saos2 cells after 96 hrs by MTT assay; type: functional, cell-based; settings: SAOS-2, 96 h
[24] = test system: NCI-H460; assay: Antitumor activity against human NCI-H460 cells xenografted in athymic mouse assessed as delay in tumor growth at 100 mg/kg, po administered QD on day 1 after implantation for 5 days; type: functional
[25] = test system: SW-620; assay: Induction of apoptosis in human SW620 cells assessed as late apoptotic cells at 1 uM after 48 hrs by TUNEL assay; type: functional
[26] = test system: HT-29; assay: Cytotoxicity against human HT-29 cells after 96 hrs by MTT assay; type: functional, cell-based; settings: HT-29, 96 h
[27] = target: Aurora kinase A (Homo sapiens) (UniProt O14965); assay: Inhibition of Aurora A phosphorylation in human A549 cells at 0.15 to 5 uM after 1 hr by Western blot analysis in presence of nocodazole and proteasome inhibitor MG132; type: cell-based
[28] = Fraction unbound in rat plasma by equilibrium dialysis; type: ADME, cell-free
[29] = test system: A549; assay: Cell cycle arrest in asynchronous human A549 cells assessed as accumulation of cyclin B1-negative tetraploid cells at G1 phase at 0.5 to 2 uM after 24 hrs by FACS analysis; type: functional, cell-based
[30] = test system: CCRF-CEM; assay: Cytotoxicity against human CCRF-CEM cells after 96 hrs by MTT assay; type: functional, cell-based
[31] = test system: Mus musculus; assay: Toxicity in athymic mouse xenografted with human NCI-H460 cells assessed as body weight loss at 75 mg/kg, po administered QD on day 1 after implantation for 5 days measured on day 13; type: organism-based; set-up: dose 75 mg/kg, route oral; settings: in vivo, 120 h
[32] = test system: MCF7; assay: Induction of p53 protein expression in human MCF7 cells at 0.07 to 10 uM after 7 hrs by fluorescent microscopy; type: functional, cell-based
[33] = test system: COLO 205; assay: Cytotoxicity against human COLO205 cells after 96 hrs by MTT assay; type: functional, cell-based; settings: COLO 205, 96 h
[34] = test system: MIA PaCa-2; assay: Cytotoxicity against human MIAPaCa2 cells after 96 hrs by MTT assay; type: functional, cell-based; settings: MIA PaCa-2, 96 h
[35] = Oral bioavailability in mouse up to 100 mg/kg; type: ADME, organism-based; settings: in vivo
[36] = Inhibition of Aurora kinase in human A549 cells assessed as concentration required for half-maximal inhibition of histone H3 serine-10 phosphorylation after 7 hrs immunofluorescence microscopy; type: cell-based; settings: A549, 7 h
[37] = test system: A549; assay: Effect on mitotic index in asynchronous human A549 cells assessed as appearance of misaligned chromosomes with shortened spindle fibres at 0.5 uM after 8 hrs […]; type: functional, cell-based
[38] = Elimination half life in Wistar rat at 10 mg/kg, po by LC/MS/MS analysis; type: ADME, organism-based; set-up: dose 10 mg/kg, route oral; settings: in vivo, read-out: beta t1/2 (converted)
[39] = Octanol-aqueous buffer partition coefficient, log D at pH 7.4 by shake-flask method; type: physicochemical
[40] = test system: CYP1A2; assay: In vitro elimination half life at 5 uM in presence of human recombinant CYP1A2; type: ADME; settings: read-out: beta t1/2
[41] = test system: SW-620; assay: Induction of apoptosis in human SW620 cells assessed as early apoptotic cells at 1 uM after 48 hrs by TUNEL assay; type: functional
[42] = Inhibition of PKC
[43] = test system: U2OS; assay: Inhibition of Aurora kinase in asynchronous human U2OS cells assessed as reduction of histone H3 serine-10 phosphorylation at 150 nM after 7 hrs immunofluorescence microscopy; type: cell-based
[44] = target: Mitogen-activated protein kinase 14 (Homo sapiens, UniProt Q16539); assay: Inhibition of SAPK2A
[45] = target: Cytochrome P450 3A (Homo sapiens, UniProt P08684+P20815+Q9HB55+P24462); assay: Inhibition of CYP3A in human hepatocyte at 5 uM; type: ADME, cell-based; settings: hepatocytes

Chain of Cyclin-dependent kinase 7/ cyclin H (P51946 whole entry): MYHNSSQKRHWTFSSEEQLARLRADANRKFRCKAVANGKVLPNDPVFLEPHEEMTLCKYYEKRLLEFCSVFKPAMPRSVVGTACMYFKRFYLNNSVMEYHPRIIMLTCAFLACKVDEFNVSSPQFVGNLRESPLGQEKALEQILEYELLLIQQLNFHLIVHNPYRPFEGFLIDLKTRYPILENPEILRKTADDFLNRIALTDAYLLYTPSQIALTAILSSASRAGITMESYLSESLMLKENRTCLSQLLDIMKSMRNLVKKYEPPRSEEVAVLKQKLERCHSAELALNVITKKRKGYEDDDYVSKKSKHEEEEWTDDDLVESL
Chain of Cyclin-dependent kinase 7/ cyclin H (P50613 whole entry): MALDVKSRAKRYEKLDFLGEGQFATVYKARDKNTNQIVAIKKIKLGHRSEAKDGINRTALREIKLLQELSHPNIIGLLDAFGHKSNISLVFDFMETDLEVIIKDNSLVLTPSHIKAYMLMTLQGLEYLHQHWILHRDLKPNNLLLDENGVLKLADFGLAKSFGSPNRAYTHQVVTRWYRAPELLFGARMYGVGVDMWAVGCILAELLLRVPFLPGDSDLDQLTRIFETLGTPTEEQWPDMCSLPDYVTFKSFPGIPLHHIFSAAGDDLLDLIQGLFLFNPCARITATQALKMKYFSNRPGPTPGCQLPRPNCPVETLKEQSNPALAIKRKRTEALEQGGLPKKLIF
Chain of Voltage-gated inwardly rectifying potassium channel KCNH2 (Q12809 whole entry): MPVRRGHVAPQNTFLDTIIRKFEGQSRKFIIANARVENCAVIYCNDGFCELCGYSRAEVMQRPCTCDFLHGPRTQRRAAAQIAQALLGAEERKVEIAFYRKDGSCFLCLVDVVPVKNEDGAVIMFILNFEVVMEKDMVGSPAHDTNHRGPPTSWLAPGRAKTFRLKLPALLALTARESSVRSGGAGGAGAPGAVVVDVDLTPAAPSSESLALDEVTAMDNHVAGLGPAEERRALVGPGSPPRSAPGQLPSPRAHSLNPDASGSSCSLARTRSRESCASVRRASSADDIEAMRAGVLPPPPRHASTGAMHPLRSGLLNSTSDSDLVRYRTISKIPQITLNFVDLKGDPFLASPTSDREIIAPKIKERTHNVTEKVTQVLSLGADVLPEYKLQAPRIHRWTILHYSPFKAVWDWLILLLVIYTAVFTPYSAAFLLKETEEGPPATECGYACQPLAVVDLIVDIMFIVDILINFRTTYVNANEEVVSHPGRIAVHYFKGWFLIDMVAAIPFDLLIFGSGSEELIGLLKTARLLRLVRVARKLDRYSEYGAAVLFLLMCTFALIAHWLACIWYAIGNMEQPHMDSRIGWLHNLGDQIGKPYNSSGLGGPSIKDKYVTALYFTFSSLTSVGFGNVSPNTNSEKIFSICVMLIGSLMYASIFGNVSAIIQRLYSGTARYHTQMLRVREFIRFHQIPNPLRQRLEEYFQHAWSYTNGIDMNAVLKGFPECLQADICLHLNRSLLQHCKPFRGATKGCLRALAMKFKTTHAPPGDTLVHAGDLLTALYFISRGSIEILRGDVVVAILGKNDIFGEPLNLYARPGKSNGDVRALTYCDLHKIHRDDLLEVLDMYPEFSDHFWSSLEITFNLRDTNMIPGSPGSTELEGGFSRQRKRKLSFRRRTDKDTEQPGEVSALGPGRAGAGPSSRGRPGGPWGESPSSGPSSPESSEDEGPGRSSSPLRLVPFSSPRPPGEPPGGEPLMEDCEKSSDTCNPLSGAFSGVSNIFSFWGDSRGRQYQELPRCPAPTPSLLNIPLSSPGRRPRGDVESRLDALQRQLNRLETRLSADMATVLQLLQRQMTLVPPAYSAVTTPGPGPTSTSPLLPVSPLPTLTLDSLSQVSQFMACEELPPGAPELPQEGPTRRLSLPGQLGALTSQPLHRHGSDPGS
Chain of Mitogen-activated protein kinase 14 (Q16539 whole entry): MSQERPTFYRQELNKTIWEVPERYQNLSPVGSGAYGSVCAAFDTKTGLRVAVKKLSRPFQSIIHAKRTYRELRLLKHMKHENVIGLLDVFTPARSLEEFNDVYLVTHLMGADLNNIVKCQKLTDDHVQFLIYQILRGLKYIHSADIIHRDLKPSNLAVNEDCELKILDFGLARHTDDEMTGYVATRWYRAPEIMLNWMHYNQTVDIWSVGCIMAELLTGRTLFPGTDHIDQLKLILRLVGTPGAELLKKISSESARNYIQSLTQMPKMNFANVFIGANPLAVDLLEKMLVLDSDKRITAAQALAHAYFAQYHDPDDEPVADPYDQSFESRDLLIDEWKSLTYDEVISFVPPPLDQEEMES
Chain of Cytochrome P450 3A4 (P08684 whole entry): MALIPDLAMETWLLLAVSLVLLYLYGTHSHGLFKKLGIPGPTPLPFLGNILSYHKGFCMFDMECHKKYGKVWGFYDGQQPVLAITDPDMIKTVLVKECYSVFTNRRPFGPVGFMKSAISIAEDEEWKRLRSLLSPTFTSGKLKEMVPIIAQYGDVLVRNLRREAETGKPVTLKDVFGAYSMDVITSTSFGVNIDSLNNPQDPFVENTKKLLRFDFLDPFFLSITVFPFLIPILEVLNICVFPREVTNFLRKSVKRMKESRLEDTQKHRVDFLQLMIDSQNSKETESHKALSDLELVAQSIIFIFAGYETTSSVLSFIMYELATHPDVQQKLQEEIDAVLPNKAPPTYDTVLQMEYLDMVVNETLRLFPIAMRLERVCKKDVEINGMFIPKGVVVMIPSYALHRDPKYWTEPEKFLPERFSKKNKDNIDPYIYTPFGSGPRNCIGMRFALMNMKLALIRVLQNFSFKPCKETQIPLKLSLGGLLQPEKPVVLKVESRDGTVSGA
Chain of Aurora kinase B (Q96GD4 whole entry): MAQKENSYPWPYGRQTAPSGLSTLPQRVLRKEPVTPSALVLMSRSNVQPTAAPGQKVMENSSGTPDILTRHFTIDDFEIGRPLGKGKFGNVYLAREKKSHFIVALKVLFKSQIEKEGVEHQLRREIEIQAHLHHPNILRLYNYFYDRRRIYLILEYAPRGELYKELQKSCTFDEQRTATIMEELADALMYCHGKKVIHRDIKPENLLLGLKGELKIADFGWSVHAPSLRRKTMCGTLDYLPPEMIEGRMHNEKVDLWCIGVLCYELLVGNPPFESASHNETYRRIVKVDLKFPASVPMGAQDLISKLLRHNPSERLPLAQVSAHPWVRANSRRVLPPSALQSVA
Chain of Aurora kinase A (Homo sapiens) (O14965 whole entry): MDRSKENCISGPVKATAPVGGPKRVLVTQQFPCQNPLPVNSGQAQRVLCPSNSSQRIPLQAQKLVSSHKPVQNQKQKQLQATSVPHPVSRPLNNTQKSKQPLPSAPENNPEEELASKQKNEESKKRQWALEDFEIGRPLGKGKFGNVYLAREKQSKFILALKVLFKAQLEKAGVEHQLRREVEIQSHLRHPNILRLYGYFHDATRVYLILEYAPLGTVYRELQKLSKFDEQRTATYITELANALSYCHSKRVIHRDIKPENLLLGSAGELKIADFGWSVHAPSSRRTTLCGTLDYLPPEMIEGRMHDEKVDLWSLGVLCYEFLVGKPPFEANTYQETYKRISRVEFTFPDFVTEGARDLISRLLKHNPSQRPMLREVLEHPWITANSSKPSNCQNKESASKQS

SMILES: Cc1nc(N)sc1-c1ccnc(Nc2ccc(N3CCOCC3)cc2)n1 [CYC-116]
- Cmax [1]: 3.9 µM
- inhibition [2]: Active
- inhibition (INH) [3]: Active
- Activity [4]: 9.3%
- clearance [5]: 42.3 µL/min/mg
- Ki [6]: > 10000 nM
- Ki [7]: > 10000 nM
- IC50 [8]: 170 nM
- Vd/F [9]: 8.5 L/kg
- inhibition (INH) [10]: Active
- Activity [11]: 2.3 days
- Activity [12]: Toxic
- IC50 [13]: 590 nM
- Activity [14]: Active
- IC50 [15]: 681 nM
- inhibition [16]: Active
- IC50 [17]: 1380 nM
- solubility kinetic [18]: 10.5 µM (≈ 3.87 µg/mL)
- Activity [19]: 19%
- inhibition (INH) [20]: Not Active
- inhibition [21]: Active
- IC50 [22]: 775 nM
- IC50 [23]: 110 nM
- Activity [24]: 5.8 days
- Activity [25]: 34.7%
- IC50 [26]: 725 nM
- inhibition [27]: Active
- fraction unbound [28]: 0.93
- Activity [29]: Active
- IC50 [30]: 471 nM
- Activity [31]: Non-toxic
- Activity [32]: inactive
- IC50 [33]: 241 nM
- IC50 [34]: 278 nM
- bioavailability [35]: ≤ 61%
- IC50 [36]: 480 nM
- Activity [37]: Active
- half-life [38]: 3 h
- logD [39]: 2.74
- half-life at 5 µM [40]: 1.2 h
- Activity [41]: 64.8%
- Ki [42]: > 10000 nM
- Activity [43]: inactive
- Ki [44]: > 10000 nM
- inhibition (INH) [45]: Active
